Values after ≈ are worked out from the molar mass of the structure shown.
Assays:
[1] = test system: Streptococcus pyogenes ATCC 8668 LRP 34; test: Bacteriostatic power in liquid medium (MIC); format: cell-based; conditions: Streptococcus pyogenes, ATCC8668; liquid medium; read-out: Minimum inhibiting concentration
Excerpt: (§1) the bacteriostatic power, expressed as the minimum inhibiting concentration (MIC) against both aerobic and anaerobic, Gram positive and Gram negative, bacterial stocks: the related results are reported in the tables 2 and 3.

[2] = test system: Corynebacterium diphteriae LRP 24; test: Bacteriostatic power in liquid medium (MIC); format: cell-based; conditions: Corynebacterium, LRP24; liquid medium; read-out: Minimum inhibiting concentration
Excerpt: as §1

[3] = test system: Staphylococcus aureus ATCC 6538 P LRP 39; test: Bacteriostatic power in liquid medium (MIC); format: cell-based; conditions: Staphylococcus aureus, ATCC6538; liquid medium; read-out: Minimum inhibiting concentration
Excerpt: as §1

[4] = test system: Streptococcus faecalis subs. zymogenes ATCC 12958 LRP 61; test: Bacteriostatic power in liquid medium (MIC); format: cell-based; conditions: Enterococcus faecalis, ATCC12958; liquid medium; read-out: Minimum inhibiting concentration
Excerpt: as §1

[5] = test system: Streptococcus pneumoniae ATCC 6303 LRP 35; test: Bacteriostatic power in liquid medium (MIC); format: cell-based; conditions: Streptococcus pneumoniae, ATCC6303; liquid medium; read-out: Minimum inhibiting concentration
Excerpt: as §1

[6] = test system: Salmonella typhy LRP 8; test: microbe, parasite or virus in culture; format: cell-based; conditions: LRP8, solid medium, read-out: Minimum inhibiting concentration
Excerpt: as §1

[7] = test system: Clostridium perfrigens ATCC 3624 LRP 206; test: microbe, parasite or virus in culture; format: cell-based; conditions: ATCC3624, solid medium, anaerobic, read-out: Minimum inhibiting concentration
Excerpt: as §1

[8] = test system: Shigella sonnei LRP 5; test: Bacteriostatic power in solid medium (MIC); format: cell-based; conditions: LRP5, read-out: Minimum inhibiting concentration
Excerpt: as §1

[9] = test system: Bacteroides fragilis ATCC 23745 LRP 205; test: Bacteriostatic power in solid medium (MIC); format: cell-based; conditions: Bacteroides fragilis, ATCC23745; solid medium; anaerobic; read-out: Minimum inhibiting concentration
Excerpt: as §1

[10] = test system: Proteus vulgaris ATCC 6380 LRP 13; test: Bacteriostatic power in solid medium (MIC); format: cell-based; conditions: Proteus vulgaris, ATCC6380; solid medium; read-out: Minimum inhibiting concentration
Excerpt: as §1

[11] = test system: Streptococcus pyogenes ATCC 8668 LRP 34; test: Bacteriostatic power in solid medium (MIC); format: cell-based; conditions: Streptococcus pyogenes, ATCC8668; solid medium; read-out: Minimum inhibiting concentration
Excerpt: as §1

[12] = test system: Pseudomonas aeruginosa LRP 9; test: Bacteriostatic power in solid medium (MIC); format: cell-based; conditions: Pseudomonas aeruginosa, LRP9; solid medium; read-out: Minimum inhibiting concentration
Excerpt: as §1

[13] = test system: Haemophilus influenzae ATCC 19418 LRP 213; test: Bacteriostatic power in solid medium (MIC); format: cell-based; conditions: Haemophilus influenzae, ATCC19418; solid medium; read-out: Minimum inhibiting concentration
Excerpt: as §1

[14] = test system: Corynebacterium diphteriae LRP 24; test: Bacteriostatic power in solid medium (MIC); format: cell-based; conditions: Corynebacterium, LRP24; solid medium; read-out: Minimum inhibiting concentration
Excerpt: as §1

[15] = test system: Streptococcus pneumoniae ATCC 6303 LRP 52; test: Bacteriostatic power in solid medium (MIC); format: cell-based; conditions: Streptococcus pneumoniae, ATCC6303; solid medium; read-out: Minimum inhibiting concentration
Excerpt: as §1

[16] = test system: Staphylococcus aureus ATCC 6538P LRP 14; test: Bacteriostatic power in solid medium (MIC); format: cell-based; conditions: Staphylococcus aureus, ATCC6538P; solid medium; Penycilline resistant; read-out: Minimum inhibiting concentration
Excerpt: as §1

[17] = test system: Escherichia coli LRP 50; test: Bacteriostatic power in solid medium (MIC); format: cell-based; conditions: Escherichia coli, LRP50; solid medium; read-out: Minimum inhibiting concentration
Excerpt: as §1

[18] = test system: Mycoplasma hominis I ATCC 14027 LRP 211; test: Bacteriostatic power in solid medium (MIC); format: cell-based; conditions: Metamycoplasma hominis, ATCC14027; solid medium; read-out: Minimum inhibiting concentration
Excerpt: as §1

[19] = test system: Acholeplasma laidlawii ATCC 23206 LRP 204; test: Bacteriostatic power in solid medium (MIC); format: cell-based; conditions: Acholeplasma laidlawii, ATCC23206, read-out: Minimum inhibiting concentration
Excerpt: as §1

[20] = test system: Fusobacteriumnecrophroum ATCC 27852 LRP 210; test: Bacteriostatic power in solid medium (MIC); format: cell-based; conditions: solid medium; anaerobic; read-out: Minimum inhibiting concentration
Excerpt: as §1

[21] = test system: Micrococcus luteus ATCC 9341 LRP 6; test: Bacteriostatic power in solid medium (MIC); format: cell-based; conditions: Micrococcus luteus, ATCC9341; solid medium; read-out: Minimum inhibiting concentration
Excerpt: as §1

[22] = test system: Klelsiella pneumoniae LRP 54; test: Bacteriostatic power in solid medium (MIC); format: cell-based; conditions: solid medium; read-out: Minimum inhibiting concentration
Excerpt: as §1

[23] = test system: Streptococcus faecalis subsp. zymogenes ATCC 12958 LRP 61; test: Bacteriostatic power in solid medium (MIC); format: cell-based; conditions: Enterococcus faecalis, ATCC12958; solid medium; read-out: Minimum inhibiting concentration
Excerpt: as §1

[24] = test system: Streptococcus faecalis LRP 7; test: Bacteriostatic power in solid medium (MIC); format: cell-based; conditions: Enterococcus faecalis, LRP7; solid medium; read-out: Minimum inhibiting concentration
Excerpt: as §1

[25] = test system: Staphylococcus aureus ATCC 14154 LRP 78; test: Bacteriostatic power in solid medium (MIC); format: cell-based; conditions: Staphylococcus aureus, ATCC14154; solid medium; Erythromycin resistant; read-out: Minimum inhibiting concentration
Excerpt: as §1

[26] = test system: Streptococcus pneumoniae ATCC 6303 LRP 35; test: Bacteriostatic power in solid medium (MIC); format: cell-based; conditions: Streptococcus pneumoniae, ATCC6303; solid medium; read-out: Minimum inhibiting concentration
Excerpt: as §1

[27] = test system: Micrococcus luteus ATCC 15957 LRP 193; test: Bacteriostatic power in solid medium (MIC); format: cell-based; conditions: Micrococcus luteus, ATCC15957; solid medium; Erythromycin resistant; read-out: Minimum inhibiting concentration
Excerpt: as §1

[28] = test system: Neisseria gonorrhoeae ATCC 19424 LRP 214; test: Bacteriostatic power in solid medium (MIC); format: cell-based; conditions: Neisseria gonorrhoeae, ATCC19424; solid medium; read-out: Minimum inhibiting concentration
Excerpt: as §1

[29] = test system: Streptococcus pyogenes ATCC 8668 LRP 197; test: Bacteriostatic power in solid medium (MIC); format: cell-based; conditions: Streptococcus pyogenes, ATCC8668; solid medium; read-out: Minimum inhibiting concentration
Excerpt: as §1

[30] = test system: Staphylococcus aureus ATCC 6538P LRP 39; test: Bacteriostatic power in solid medium (MIC); format: cell-based; conditions: Staphylococcus aureus, ATCC6538P; solid medium; read-out: Minimum inhibiting concentration
Excerpt: as §1

[31] = test system: Streptococcus pneumoniae ATCC 6303 LRP 53; test: Bacteriostatic power in solid medium (MIC); format: cell-based; conditions: Streptococcus pneumoniae, ATCC6303; solid medium; read-out: Minimum inhibiting concentration
Excerpt: as §1

[32] = test system: Bacillus subtilis LRP 25; test: Bacteriostatic power in solid medium (MIC); format: cell-based; conditions: Bacillus subtilis, LRP25; solid medium; read-out: Minimum inhibiting concentration
Excerpt: as §1

[33] = Stability in acidic environment at 25° C. (half-life of initial microbiological activity); format: physicochemical; conditions: aqueous solution
Procedure: Stability in acidic environnment at 25° C. of the novel
Note: t 1/2 represents the time for reducing to one half the initial powe
of the antibiotic determined by microbiological method through diffusion
on a plate using the test stock Microccocus luteus (Sarcina lutea) ATCC

[34] = test system: Streptococcus pyogenes ATCC 8668 LRP 34; test: Minimum bactericidal concentration (MBC); format: cell-based
Excerpt: (§2) the bacterial power, expressed as the minimum bactericidal power (MBC) against some Gram positive aerobic stocks (table 5).

[35] = test system: Corynebacterium diphteriae LRP 24; test: Minimum bactericidal concentration (MBC); format: cell-based
Excerpt: as §2

[36] = test system: Staphylococcus aureus ATCC 6538 P LRP 39; test: Minimum bactericidal concentration (MBC); format: cell-based
Excerpt: as §2

[37] = test system: Streptococcus pneumoniae ATCC 6303 LRP 35; test: Minimum bactericidal concentration (MBC); format: cell-based
Excerpt: as §2

[38] = test system: Streptococcus faecalis subs. zymogenes LRP 61; test: Minimum bactericidal concentration (MBC); format: cell-based
Excerpt: as §2

CC[C@H]1OC(=O)[C@H](C)[C@@H](O[C@H]2C[C@@](C)(O)[C@@H](O)[C@H](C)O2)[C@H](C)[C@@H](O[C@@H]2O[C@H](C)C[C@H](N(C)C)[C@H]2O)[C@](C)(O)C[C@](C)(F)C(=O)[C@H](C)[C@@H](O)[C@H]1C [P-80202, (8S)-8-fluoroerythromycin D]
MIC [1]: 0.049 µg/mL (≈ 0.0679 µM) | MIC [2]: 0.012 µg/mL (≈ 0.0166 µM) | MIC [3]: 0.195 µg/mL (≈ 0.27 µM) | MIC [4]: 0.39 µg/mL (≈ 0.54 µM) | MIC [5]: 0.049 µg/mL (≈ 0.0679 µM) | MIC [6]: 12.5 µg/mL (≈ 17.3 µM) | MIC [7]: 3.12 µg/mL (≈ 4.32 µM) | MIC [8]: 25 µg/mL (≈ 34.6 µM) | MIC [9]: 0.39 µg/mL (≈ 0.54 µM) | MIC [10]: 25 µg/mL (≈ 34.6 µM) | MIC [11]: 0.024 µg/mL (≈ 0.0332 µM) | MIC [12]: 25 µg/mL (≈ 34.6 µM) | MIC [13]: 6.25 µg/mL (≈ 8.66 µM) | MIC [14]: 0.006 µg/mL (≈ 0.00831 µM) | MIC [15]: 0.024 µg/mL (≈ 0.0332 µM) | MIC [16]: 0.097 µg/mL (≈ 0.134 µM) | MIC [17]: 25 µg/mL (≈ 34.6 µM) | MIC [18]: 25 µg/mL (≈ 34.6 µM) | MIC [19]: 3.12 µg/mL (≈ 4.32 µM) | MIC [20]: 6.25 µg/mL (≈ 8.66 µM) | MIC [21]: 0.006 µg/mL (≈ 0.00831 µM) | MIC [22]: 25 µg/mL (≈ 34.6 µM) | MIC [23]: 0.097 µg/mL (≈ 0.134 µM) | MIC [24]: 0.097 µg/mL (≈ 0.134 µM) | MIC [25]: 25 µg/mL (≈ 34.6 µM) | MIC [26]: 0.024 µg/mL (≈ 0.0332 µM) | MIC [27]: 25 µg/mL (≈ 34.6 µM) | MIC [28]: 0.097 µg/mL (≈ 0.134 µM) | MIC [29]: 0.024 µg/mL (≈ 0.0332 µM) | MIC [30]: 0.097 µg/mL (≈ 0.134 µM) | MIC [31]: 0.024 µg/mL (≈ 0.0332 µM) | MIC [32]: 0.049 µg/mL (≈ 0.0679 µM) | half-life ([33]; pH 2): 0.4 h | half-life ([33]; pH 3): 10 h | MBC/MIC [34]: 8 | MBC ([34]; Streptococcus pyogenes, ATCC8668, read-out: Minimum bactericidal concentration (MBC)): 0.39 µg/mL (≈ 0.54 µM) | MBC/MIC [35]: 16 | MBC ([35]; Corynebacterium, LRP24, read-out: Minimum bactericidal concentration (MBC)): 0.195 µg/mL (≈ 0.27 µM) | MBC/MIC [36]: 16 | MBC ([36]; Staphylococcus aureus, ATCC6538, read-out: Minimum bactericidal concentration (MBC)): 3.12 µg/mL (≈ 4.32 µM) | MBC/MIC [37]: 4 | MBC ([37]; Streptococcus pneumoniae, ATCC6303, read-out: Minimum bactericidal concentration (MBC)): 0.195 µg/mL (≈ 0.27 µM) | MBC/MIC [38]: 8 | MBC ([38]; Enterococcus faecalis, read-out: Minimum bactericidal concentration (MBC)): 3.12 µg/mL (≈ 4.32 µM)

From US4439426A, “Semisynthetic macrolidic antibiotics, intermediate compounds for their preparation and related pharmaceutical compositions containing them” (priority 1981, dated 1984)
